Where a name gives a salt, the structure may show the parent alone.
Columns and labels:
Format in all cases: biochemical
deoxyribose [1] = assay: TBARS assay, anti tumor antibiotics, ultrasound (Example 12); conditions: 0.005 mM ferrous iron, 0.005 mM ferric iron, 15 min
Experimental: The following example uses the thiobarbituric acid-reactive substances (TBARS) assay to identify anti tumor antibiotics that enhance radical production during ultrasound. All solutions are prepared in pH 7.5 phosphate buffer containing approximately 2 mM deoxyribose, 0.01% hydrogen peroxide, 0.005 mM ferrous iron, 0.005 mM ferric iron, and the additives indicated in the table below. Solutions are sonicated at 30 W, 2 MHz, 32-34 degrees Celsius for fifteen minutes using a PZT-8 1.8 cm diameter custom transducer. The sonicated solution is placed on an orbit shaker rotating at 25 RPM to ensure even sonication of the solution while the transducer is held stationary. Control solutions are placed in a controlled temperature bath at 32-34 degrees Celsius without sonication. After 15 minutes of treatment, 1 mL test solution was placed in a test tube followed by 2 mL of 1% 2-thiobarbituric acid and 2 mL of 2.8% trichloroacetic acid. The test tube is sealed and heated to 90 degrees Celsius for 30 minutes and allowed to cool to room temperature for 20 minutes. The absorbance at 532 nm is measured. The enhanced radical production during ultrasound exposure is determined by comparing the amount of deoxyribose degradation that occurs in the sonicated solution versus the control solution using the following equation: [formula]

deoxyribose [2] = assay: TBARS assay, chelants during ultrasound exposure, ferrous iron (Example 1); conditions: 0.025 mM ferrous iron, 0.03-0.04 mM chelant, 0.01% hydrogen peroxide, pH 7.5, 30 W 2 MHz 10 min
Experimental: (§1) The following example uses the thiobarbituric acid-reactive substances (TBARS) assay to identify chelants that enhance radical production during ultrasound exposure. All solutions were prepared in pH 7.5 phosphate buffer containing approximately 2 mM deoxyribose, 0.01% hydrogen peroxide, 0.025 mM ferrous iron, and 0.03-0.04 mM chelant. Solutions were sonicated at 30 W, 2 MHz, 32-34 degrees Celsius for ten minutes using a PZT-8 1.8 cm diameter custom transducer. The sonicated solution was placed on an orbit shaker rotating at 25 RPM to ensure even sonication of the solution while the transducer was held stationary. Control solutions were placed in a controlled temperature bath at 32-34 degrees Celsius without sonication. After 10 minutes of treatment, 1 mL test solution was placed in a test tube followed by 2 mL of 1% 2-thiobarbituric acid and 2 mL of 2.8% trichloroacetic acid. The test tube was sealed and heated to 90 degrees Celsius for 30 minutes and allowed to cool to room temperature for 20 minutes. The absorbance at 532 nm was measured. The enhanced radical production during ultrasound exposure is determined by comparing the amount of deoxyribose degradation that occurs in the sonicated solution versus the control solution using the following equation: [formula]

deoxyribose [3] = assay: TBARS assay, chelants during ultrasound exposure, ferric iron (Example 2); conditions: 0.02-0.03 mM ferric iron, 0.04-0.05 mM chelant, 0.01% hydrogen peroxide, pH 7.5, 30 W 2 MHz 10 min
Experimental: as §1, with “0.02-0.03” for “0.025”, “ferric” for “ferrous”, “0.04-0.05” for “0.03-0.04”, “was” for “is”

[4] = Free radical production when exposed to ultrasound and a metal (statements in the description); conditions: for free radical production: when exposed to ultrasound and a metal
deoxyribose [5] = assay: TBARS assay, chelants 0.07-0.11 mM during ultrasound exposure, ferrous iron (Example 3); conditions: 0.025 mM ferrous iron, 0.07-0.11 mM chelant, 0.01% hydrogen peroxide, pH 7.5, 30 W 2 MHz 10 min
Experimental: as §1, with “0.07-0.11” for “0.03-0.04”, “was” for “is”

deoxyribose [6] = assay: TBARS assay, chelants 0.07-0.11 mM during ultrasound exposure, ferric iron (Example 4); conditions: 0.02-0.03 mM ferric iron, 0.07-0.11 mM chelant, 0.01% hydrogen peroxide, pH 7.5, 30 W 2 MHz 10 min
Experimental: as §1, with “0.02-0.03” for “0.025”, “ferric” for “ferrous”, “0.07-0.11” for “0.03-0.04”, “was” for “is”

ferritin = assay: Release of iron from ferritin assay, naphthoquinones, ultrasound (Example 8); conditions: iron release vs ultrasound without additive, 0.2 mg/mL ferritin, pH 7, 15 min
Experimental: The following example uses the release of iron from ferritin assay to show the effect of naphthoquinones on the release of iron from ferritin during ultrasound exposure. All solutions were prepared in pH 7 acetic acid solution containing approximately 0.2 mg/mL ferritin and 1 mM ferrozine, and the concentration of naphthoquinone indicated in the table below. Solutions were sonicated at 30 W, 2 MHz, 32-34 degrees Celsius for fifteen minutes using a PZT-8 1.8 cm diameter custom transducer. The sonicated solution was placed on an orbit shaker rotating at 25 RPM to ensure even sonication of the solution while the transducer was held stationary. Control solutions were placed in a controlled temperature bath at 32-34 degrees Celsius without sonication. After 15 minutes of treatment, an aliquot was tested for the presence of the iron-ferrozine chelate via absorbance at 562 nm. The amount of iron released was determined using the control solution corrected absorbance (subtract the absorbance of the control solution from the absorbance of the ultrasound solution). The corrected absorbance was compared to a ferrozine-iron standard curve to determine the amount of iron released. The enhanced iron release due to ultrasound exposure in the presence of the naphthoquinone was compared to the amount of enhanced iron release due to ultrasound exposure in the absence of any additives as follows: [formula]

COc1cccc2c1C(=O)c1c(O)c3c(c(O)c1C2=O)C[C@@](O)(C(=O)CO)C[C@@H]3O[C@H]1C[C@H](N)[C@@H](O)[C@H](C)O1 [Epirubicin]
% Ultrasound Mediated Activity vs Control (deoxyribose [1]; 0.1 mM additive): >100%

O=C(O)CN(CCOCCOCCN(CC(=O)O)CC(=O)O)CC(=O)O [Ethylene glycol-bis(2-aminoethyl)-N,N,N′,N′-tetraacetic acid]
% Ultrasound Mediated Activity vs Control (deoxyribose [2]): 29% | % Ultrasound Mediated Activity vs Control (deoxyribose [3]): 520%

O=C(O)P(=O)(O)O [phosphonoformic acid]
radical production ([4]; added to an iron/EDTA system, ultrasound): radical production was increased

Cc1c(C(=O)O)c(O)cc2c1C(=O)c1c(O)c([C@@H]3O[C@H](CO)[C@@H](O)[C@H](O)[C@H]3O)c(O)c(O)c1C2=O [Carminic acid]
% Ultrasound Mediated Activity vs Control (deoxyribose [1]; 0.025 mM additive): >100%

Nc1ncnc2c1ncn2[C@@H]1O[C@H](COP(=O)(O)OP(=O)(O)O)[C@@H](O)[C@H]1O [Adenosine diphosphate (ADP), Adenosine diphosphate]
% Ultrasound Mediated Activity vs Control (deoxyribose [5]): 26% | % Ultrasound Mediated Activity vs Control (deoxyribose [6]): 280% | free radical production [4]: increase free radical production

O=C(O)CN(CC(=O)O)C1CCCCC1N(CC(=O)O)CC(=O)O (centres unmarked) [Diaminocyclohexane-N,N,N′,N′-tetraacetic acid]
% Ultrasound Mediated Activity vs Control (deoxyribose [2]): 61% | % Ultrasound Mediated Activity vs Control (deoxyribose [3]): 446%

CC(=O)N(O)CCCCCNC(=O)CCC(=O)N(O)CCCCCNC(=O)CCC(=O)N(O)CCCCCN [Desferrioxamine mesylate]
% Ultrasound Mediated Activity vs Control (deoxyribose [2]): 92% | % Ultrasound Mediated Activity vs Control (deoxyribose [3]): 81%

O=C(O)c1ccccn1 [Picolinic Acid]
% Ultrasound Mediated Activity vs Control (deoxyribose [5]): 53% | % Ultrasound Mediated Activity vs Control (deoxyribose [6]): 175%

O=C(O)CN(CCO)CCN(CC(=O)O)CC(=O)O [N-(2-Hydroxyethyl)ethylenediamine-N,N′,N′-triacetic acid]
% Ultrasound Mediated Activity vs Control (deoxyribose [2]): 34% | % Ultrasound Mediated Activity vs Control (deoxyribose [3]): 224%

Olivomycin
% Ultrasound Mediated Activity vs Control (deoxyribose [1]; 0.025 mM additive): >100%

c1cnc2c(c1)ccc1cccnc12 [1,10 Phenanthroline]
% Ultrasound Mediated Activity vs Control (deoxyribose [5]): 33%

O=C(O)CN(CCN(CC(=O)O)CC(=O)O)CCN(CC(=O)O)CC(=O)O [Diethylenetriaminepentaacetic acid]
% Ultrasound Mediated Activity vs Control (deoxyribose [3]): 177%

COC1=C(N)C(=O)c2nc(-c3nc(C(=O)O)c(C)c(-c4ccc(OC)c(OC)c4O)c3N)ccc2C1=O [Streptonigrin]
% Ultrasound Mediated Activity vs Control (deoxyribose [1]; 0.025 mM additive): >100%

O=S([O-])[O-].[Na+].[Na+] [sodium sulfite]
free radical production [4]: increase free radical production

COc1cccc2c1C(=O)c1c(O)c3c(c(O)c1C2=O)C[C@@](O)(C(C)=O)C[C@@H]3O[C@H]1C[C@H](N)[C@H](O)[C@H](C)O1 [Daunomycin]
% Ultrasound Mediated Activity vs Control (deoxyribose [1]; 0.1 mM additive): >100%

O=C(O)CN(CC(=O)O)CC(=O)O [Nitriloacetic acid]
% Ultrasound Mediated Activity vs Control (deoxyribose [2]): 69% | % Ultrasound Mediated Activity vs Control (deoxyribose [3]): 238%

CC1=CC(=O)c2ccccc2C1=O [2-methyl-1,4-naphthoquinone (menadione), 2-methyl-1,4-naphthoquinone]
% Ultrasound Mediated Activity (ferritin; 18 uM additive): 5.3%

O=C1C=CC(=O)c2c(O)ccc(O)c21 [5,8 dihydroxy-1,4-naphthoquinone]
% Ultrasound Mediated Activity (ferritin; 106 uM additive): 185%

CO[C@@]12[C@H](COC(N)=O)C3=C(C(=O)C(C)=C(N)C3=O)N1C[C@@H]1N[C@@H]12 [Mitomycin C]
% Ultrasound Mediated Activity vs Control (deoxyribose [1]; 0.025 mM additive): >100%

COC1C(O)CC(OC2CC(Oc3cc4cc5c(c(O)c4c(O)c3C)C(=O)[C@@H](OC3CC(OC4CC(OC6CC(C)(O)C(OC(C)=O)C(C)O6)C(O)C(C)O4)C(O)C(C)O3)[C@H]([C@H](OC)C(=O)[C@@H](O)[C@@H](C)O)C5)OC(C)C2OC(C)=O)OC1C (some centres unmarked) [Chromomycin]
% Ultrasound Mediated Activity vs Control (deoxyribose [1]; 0.025 mM additive): >100%

O=C(O)CC(O)(CC(=O)O)C(=O)O [Citrate]
% Ultrasound Mediated Activity vs Control (deoxyribose [5]): 31% | % Ultrasound Mediated Activity vs Control (deoxyribose [6]): 161% | free radical production [4]: increase free radical production

O=S(=O)(O)c1ccc(-c2nnc(-c3ccccn3)nc2-c2ccc(S(=O)(=O)O)cc2)cc1 [3-(2-Pyridyl)-5,6-diphenyl-1,2,4-triazine-4,4-disulfonic acid]
% Ultrasound Mediated Activity vs Control (deoxyribose [5]): 45% | % Ultrasound Mediated Activity vs Control (deoxyribose [6]): 136%

O=S(=O)(O)c1ccc(-c2nnc(-c3ccccn3)nc2-c2ccc(S(=O)(=O)O)o2)o1 [3-(2-Pyridyl)-5,6-bis(5-sulfo-2-furyl)-1,2,4-triazine]
% Ultrasound Mediated Activity vs Control (deoxyribose [5]): 50% | % Ultrasound Mediated Activity vs Control (deoxyribose [6]): 207%
